Data on 25 compounds can be found in US12109207B2, “Methods of using 4(1H)-quinolone derivatives” (Academia Sinica, priority 2019, dated 2024).

Where two headings read alike, the source gives them in different places.

Assay [1] deals with H1975 cells. Description: Cell cytotoxicity assay (MTS), H1975. Type of assay: cell-based, human. On the procedure:
(§1) Cells were seeded into the wells of 96-well plates (2000 cells/well). After an overnight culture, the cells were treated with different concentrations of a compound for 72 h. The CellTiter 96 AQueous one-solution cell proliferation assay (MTS) reagent was used to determine cytotoxicity. After treatment with a compound, 20 μL of the MTS reagent was added to each well and the plates were incubated at 37° C. for 1-4 h. Next, the absorbance at 490 nm of the culture medium in each well was determined using a VersaMax microplate reader (Molecular Devices).

The test system of assay [2] is KBtax. The experiment in a line: Cell cytotoxicity assay (MTS), KBtax. Type of assay: cell-based, human. As to the method: as §1
Assay [3] relates to KBvin. The experiment in a line: Cell cytotoxicity assay (MTS), KBvin. Type of assay: cell-based, human. As to the method: as §1
For assay [4], the system named is KB. Description: Cell cytotoxicity assay (MTS), KB. The conditions noted are these: Homo sapiens. The class given is cell-based. As to the method: as §1
Assay [5] deals with CEM/VBL. The experiment in a line: Cell cytotoxicity assay (MTS), CEM/VBL. The class given is cell-based, human. As to the method:
as §1

Assay [6] deals with CCRF-CEM. The experiment in a line: Cell cytotoxicity assay (MTS), CCRF-CEM. To be noted: Homo sapiens. Type of assay: cell-based. On the procedure: as §1
Assay [7] has as its system MDA-MB-231. The experiment in a line: Cell cytotoxicity assay (MTS), MDA-MB-231. Type of assay: cell-based. The conditions noted are these: Homo sapiens, MDA-MB-231, 72 h. On the procedure: as §1
Assay [8] has as its system human fibroblast (HFB) cells. The experiment in a line: Cell cytotoxicity assay (MTS), human fibroblast. The class given is cell-based. To be noted: normal cell line HFB. As to the method: as §1
Where [9] appears, read: Homo sapiens, NCI-H1975, 72 h, H1975 cells, 72 h, MTS, read-out: IC50.
The mark [10] stands for this setting: Homo sapiens, NCI-H1975, Table 8, cell line not given, values match H1975, read-out: IC50.
The mark [11] stands for this setting: Homo sapiens, NCI-H1975, H1975 cells, cell-based SAR study, read-out: IC50.

Take `CCOC(=O)c1ccc2[nH]c(-c3ccc(O)cc3)cc(=O)c2c1` [RJ-LC-15-10, Ethyl 2-(4-hydroxyphenyl)-4-oxo-1,4-dihydroquinoline-6-carboxylate]: the half-maximal inhibitory concentration (IC50) in assay [1] (setting [9]) was 0.475 µM; in assay [1] (setting [10]) it was 0.475 ± 0.031 µM.

Regarding `CCOC(=O)c1cccc2[nH]c(-c3ccccc3)cc(=O)c12` [RJ-LC-15-17, Ethyl 4-oxo-2-phenyl-1,4-dihydroquinoline-5-carboxylate], the IC50 in assay [1] (setting [10]) is more than 10 µM.

Regarding `CCOC(=O)c1ccc2[nH]c(-c3cccc(OC)c3)cc(=O)c2c1` [RJ-LC-15-7, Ethyl 2-(3-methoxyphenyl)-4-oxo-1,4-dihydroquinoline-6-carboxylate], the half-inhibitory concentration (IC50) in assay [1] (setting [9]) is 0.044 µM; in assay [1] (setting [10]) it was 0.044 ± 0.001 µM.

As for `O=C(Oc1ccccc1)c1ccc2[nH]c(-c3cccc(F)c3)cc(=O)c2c1` [RJ-LC-15-24, Phenyl 2-(3-fluorophenyl)-4-oxo-1,4-dihydroquinoline-6-carboxylate], the IC50 in assay [1] (setting [10]) was 0.3 ± 0.008 µM.

Compound `O=C(O)c1ccc2[nH]c(-c3ccccc3)cc(=O)c2c1` [RJ-LC-15-21, Sodium 4-oxo-2-phenyl-1,4-dihydroquinoline-6-carboxylate] came in with an IC50 in assay [1] (Homo sapiens, NCI-H1975) of more than 10 µM.

For the compound `CCOC(=O)c1ccc2[nH]c(-c3ccccc3)cc(=O)c2c1` [RJ-LC-15-19, Ethyl 4-oxo-2-phenyl-1,4-dihydroquinoline-6-carboxylate Methane Sulfonate], the IC50 in assay [1] (Table 8, cell line not given, values match H1975, read-out: IC50) amounted to 0.069 ± 0.004 µM.

Consider `CCOC(=O)c1ccc2c(=O)cc(-c3ccccc3)[nH]c2c1` [RJ-LC-15-18, Ethyl 4-oxo-2-phenyl-1,4-dihydroquinoline-7-carboxylate], for which the IC50 in assay [1] (setting [10]) stood at 0.097 ± 0.003 µM.

For `C/C(=C\c1csc(C)n1)[C@@H]1C[C@@H]2O[C@]2(C)CCC[C@H](C)[C@H](O)[C@@H](C)C(=O)C(C)(C)[C@@H](O)CC(=O)N1` [Ixabepilone, ixabepilone], the IC50 in assay [2] (Homo sapiens, KBtax, P-gp overexpressing, paclitaxel-selected KB subline) came to 0.035 ± 0.00071 µM; in assay [3] (Homo sapiens, KBvin, P-gp overexpressing, vincristine-selected KB subline), 0.193 ± 0.0242 µM; in assay [4] it was 0.008 ± 0.00037 µM; in assay [5] (Homo sapiens, CEM/VBL, P-gp overexpressing, vinblastine-selected CCRF-CEM subline), 0.15 ± 0.00659 µM; in assay [6], 0.003 ± 6e-05 µM. The figures for the “RF, resistance factor (IC50 in resistant cell line/IC50 in parent cell line)” value in assay [2] (KBtax vs KB), in assay [3] (KBvin vs KB) and in assay [5] (CEM/VBL vs CCRF-CEM) were 4.3, 24 and 50, respectively.

Turning to `CCOC(=O)c1ccc2[nH]c(-c3ccc(Br)cc3)cc(=O)c2c1` [RJ-LC-15-6, Ethyl 2-(4-bromophenyl)-4-oxo-1,4-dihydroquinoline-6-carboxylate], the IC50 in assay [1] (setting [11]) was 4.5 µM; in assay [1] (setting [10]), 4.5 ± 0.9 µM.

Consider `CCNC(=O)c1ccc2[nH]c(-c3cccc(F)c3)cc(=O)c2c1` [RJ-LC-15-27, N-ethyl-2-(3-fluorophenyl)-4-oxo-1,4-dihydroquinoline-6-carboxamide], for which the IC50 in assay [1] (setting [10]) is 5.6 ± 0.39 µM.

As to `CCOC(=O)c1ccc2[nH]c(-c3ccc(F)cc3)cc(=O)c2c1` [RJ-LC-15-5, Ethyl 2-(4-fluorophenyl)-4-oxo-1,4-dihydroquinoline-6-carboxylate], the IC50 in assay [1] (setting [11]) came out at 2.1 µM; in assay [1] (setting [10]), 2.1 ± 0.21 µM.

With `O=C(O)c1ccc2[nH]c(-c3ccccc3)cc(=O)c2c1` [RJ-LC-15-1, 4-oxo-2-phenyl-1,4-dihydroquinoline-6-carboxylic Acid], the IC50 in assay [1] (setting [11]) and in assay [1] (setting [10]) was more than 5 µM throughout.

For `O=C(OCCOCCOCCOCCO)c1ccc2[nH]c(-c3ccccc3)cc(=O)c2c1` [RJ-LC-15-3, 2-(2-(2-(2-hydroxyethoxy)ethoxy)ethoxy)ethyl 4-oxo-2-phenyl-1,4-dihydro quinoline-6-carboxylate], the IC50 in assay [1] (setting [10]) was 3.3 ± 0.99 µM.

As for `CCOC(=O)c1ccc2[nH]c(-c3cccc(O)c3)cc(=O)c2c1` [RJ-LC-15-11, Ethyl 2-(3-hydroxyphenyl)-4-oxo-1,4-dihydroquinoline-6-carboxylate], the IC50 in assay [1] (setting [11]) is 1.95 µM; in assay [1] (setting [10]), 1.95 ± 0.2 µM.

As for `CCOC(=O)c1ccc2[nH]c(-c3cccc(Br)c3)cc(=O)c2c1` [RJ-LC-15-25, Ethyl 2-(3-bromophenyl)-4-oxo-1,4-dihydroquinoline-6-carboxylate], in assay [1] (setting [10]), the IC50 is 0.07 ± 0.019 µM.

In the case of `COC(=O)c1ccc2[nH]c(-c3ccccc3)cc(=O)c2c1` [RJ-LC-15-14, Methyl 4-oxo-2-phenyl-1,4-dihydroquinoline-6-carboxylate], the IC50 turned out to be 0.207 µM in assay [1] (setting [9]) and 0.207 ± 0.039 µM in assay [1] (setting [10]).

As for `COC(=O)c1ccc2[nH]c(-c3cccc(F)c3)cc(=O)c2c1` [RJ-LC-15-22, Methyl 2-(3-fluorophenyl)-4-oxo-1,4-dihydroquinoline-6-carboxylate], in assay [1] (setting [10]), the IC50 came to 0.027 ± 0.006 µM.

On to `CCOC(=O)c1ccc2[nH]c(-c3cccc(C(F)(F)F)c3)cc(=O)c2c1` [RJ-LC-15-9, Ethyl 4-oxo-2-(3-(trifluoromethyl)phenyl)-1,4-dihydroquinoline Carboxylate], for which the results for the concentration for half-maximal inhibition (IC50) in assay [1] (setting [9]) and in assay [1] (setting [10]) were 0.78 µM and 0.78 ± 0.012 µM, respectively.

In the case of `CC(C)OC(=O)c1ccc2[nH]c(-c3cccc(F)c3)cc(=O)c2c1` [RJ-LC-15-23, Isopropyl 2-(3-fluorophenyl)-4-oxo-1,4-dihydroquinoline-6-carboxylate], the IC50 in assay [7] was 0.01 ± 0.0005 µM; in assay [8] it was more than 10 µM; in assay [1] (setting [9]), 0.006 ± 0.00216 µM; in assay [1] (setting [10]), 0.006 ± 0.002 µM.

`CCOCc1ccc2[nH]c(-c3ccccc3)cc(=O)c2c1` [RJ-LC-15-16, 6-(ethoxymethyl)-2-phenylquinolin-4(1H)-one]: the half-maximal inhibitory concentration (IC50) in assay [1] (setting [9]) was found to be 0.81 µM; in assay [1] (setting [10]), 0.81 ± 0.12 µM.

Take `CCOC(=O)c1ccc2[nH]c(-c3ccc(OC)cc3)cc(=O)c2c1` [RJ-LC-15-4, Ethyl 2-(4-methoxyphenyl)-4-oxo-1,4-dihydroquinoline-6-carboxylate]: the IC50 in assay [1] (setting [11]) worked out at 2.2 µM; in assay [1] (setting [10]), 2.2 ± 0.2 µM.

With `CC(C)OC(=O)c1ccc2[nH]c(-c3ccccc3)cc(=O)c2c1` [RJ-LC-15-15, Isopropyl 4-oxo-2-phenyl-1,4-dihydroquinoline-6-carboxylate], the concentration for half-maximal inhibition (IC50) in assay [1] (setting [9]) stood at 0.048 µM; in assay [1] (setting [10]), 0.048 ± 0.005 µM.

In the case of `CCOC(=O)c1ccc2[nH]c(-c3cccc(F)c3)cc(=O)c2c1` [RJ-LC-15-20, Ethyl 2-(3-fluorophenyl)-4-oxo-1,4-dihydroquinoline-6-carboxylate Methanesulfonate], the concentration for half-maximal inhibition (IC50) in assay [1] (Table 8, cell line not given, values match H1975, Methanesulfonate, read-out: IC50) was 0.042 ± 0.004 µM.

In the case of `O=C(O)c1ccc2[nH]c(-c3cccc(F)c3)cc(=O)c2c1` [RJ-LC-15-26, 2-(3-fluorophenyl)-4-oxo-1,4-dihydroquinoline-6-carboxylic Acid], the IC50 in assay [1] (setting [10]) is more than 10 µM.

Consider `CCNC(=O)c1ccc2[nH]c(-c3ccccc3)cc(=O)c2c1` [RJ-LC-15-2, N-ethyl-4-oxo-2-phenyl-1,4-dihydroquinoline-6-carboxamide], for which the half-inhibitory concentration (IC50) is 3.7 µM in assay [1] (setting [11]) and 3.7 ± 0.73 µM in assay [1] (setting [10]).
